Reference: patent publication US12168639B2 (priority 2013, dated 2024)

Key:
[1] = test system: rats fed a high-fat diet and sucrose supplemented (5%) drinking water; conditions: rat, in vivo
[2] = test system: Isolated mitochondria from liver; assay type: cell-based, rat
[3] = test system: Isolated mitochondria from brain; assay type: cell-based, rat
[4] = test system: whole-cell brain preparations; assay type: cell-based
[5] = test system: rats; conditions: rat, in vivo
[6] = test system: rats; conditions: rat, in vivo; remark: listed apart in the source
[7] = rat, in vivo

O=[N+]([O-])c1ccc(O)c([N+](=O)[O-])c1 [DNP, 2,4-dinitrophenol]
lowest dose effective at lowering liver TAG [1]: 5 mg/kg | mitochondrial uncoupling (oxygen consumption) [2]: uncoupled both tissues | mitochondrial uncoupling (oxygen consumption) [3]: uncoupled both tissues | uncoupling [4]: neither DNP nor DNPME was found to uncouple | lowest dose where systemic toxicities may be observed [5]: 25 mg/kg | mortality acutely after IP injection [5]: rapid dose-dependent mortality | rectal temperature after IP injection [5]: large, dose-dependent increase | doses causing increase in rectal temperatures and mortality ([5]; ip): above 10 mg/kg | ratio of effective to toxic dose [6]: 0.2 | toxic threshold of chronic treatment [6]: 1 mg/kg | peak DNP liver concentrations [7]: ~60 µM | peak plasma DNP concentration [7]: ~120 µM | peak plasma DNP concentrations [7]: ~380 µM | time of peak plasma concentrations of DNP after injection [7]: 1 h
